Where two headings read alike, the source gives them in different places.
Assays:
HIV [1] = conditions: cited from earlier work
[2] = cited from earlier work
HIV [3] = conditions: cited from earlier work; remark: listed apart in the source
[4] = test system: serum antibodies raised against efavirenz-KLH conjugate; experiment: Competitive inhibition ELISA: binding of mouse serum antibody to N-linked BSA-efavirenz conjugate; parameters: species or system mice; conditions: free drug, serum of one mouse, OD450, FIG. 3
Protocol: The sera were titered for antibody activity via an antigen specific ELISA. Wells of a styrene 96-well plate were coated with efavirenz N-linked BSA conjugate 5 by placing 50 μL of a 0.1 μg/mL efavirenz-BSA conjugate solution into 0.1 M potassium carbonate, pH 9.2, in the wells and incubating the covered plate at 37° C. for 1 hour. The solution was removed, and the wells were immediately filled with a post coat solution consisting of 1% gelatin hydrolysate, 2% sucrose, 0.1 M Tris buffer, pH 7.4, and 0.15% TWEEN 20 (all reagents from Sigma Chemical Co.), covered and incubated as above. Subsequently, the plates were rinsed once with 2% sucrose and air-dried. Once dry, the plates were sealed into aluminum foil clad plastic bags with a desiccant and stored at 4° C. until used.
Titering consisted of preparing an initial 1:100 dilution of the sera in PBS-T, then seven serial 1:3 dilutions. […] Color that developed was read in a microplate reader equipped with a 450 nm filter. The color intensities were plotted versus the final serum dilutions, and the dilution point at which 50% of the maximum reading was obtained was recorded.
For determining competitive inhibition, plates treated as above were used. […] Serum dilutions of twice the concentration determined above were then prepared, and 25 μL was placed into each well of the column. […]

[5] = taken with other anti-HIV medicines

In the case of `O=C1Nc2ccc(Cl)cc2[C@@](C#CC2CC2)(C(F)(F)F)O1` [efavirenz], the “amount of HIV in the blood (viral load)” value (HIV [1]; efavirenz) is given as “lower the amount of HIV in the blood”, the CD4 cell count (HIV [1]; [5]) is given as “increase their CD4 cell count” and the “patients' viral load” value (HIV [1]; [5]) is given as “reduce patients' viral load”. The “frequency of CNS toxicity at high versus mid plasma levels” value ([2]; efavirenz levels >4000 μg/L compared with 1000-4000 μg/L) was “approximately three times more frequent”, the “patients reporting central nervous system (CNS) side effects” value ([2]; human, in vivo) was 20-40% and the “patients who discontinue therapy because of severity or persistence of CNS side effects” value ([2]; human, in vivo) was “about 4%”. For the same molecule, the “virological failure, share of patients” value (HIV [3]; patients with low plasma levels of efavirenz, <1000 μg/L, 85 total patients) was 50%, the “virological failure, share of patients” value (HIV [3]; patients with plasma levels of efavirenz 1000-4000 μg/L or more than 4000 μg/L) was 18-22% and the “competitive inhibition of binding of serum antibodies to the drug conjugate absorbed to the microplate” value [4] was “confers a competitive inhibition of binding”.

From patent US7271252B2, “Reagents for detecting efavirenz” (Roche Diagnostics Operations, Inc., priority 2003, dated 2007)
